The record followed here is patent publication US5792765A, “Substituted oxazolidinones” (Bayer Aktiengesellschaft, priority 1996, dated 1998).

Type in all cases: cell-based
The subject of assay [1] is Mycobacterium smegmatis DSM 43061. In words: MIC by broth microdilution, rapidly growing mycobacteria. Conditions: Mycolicibacterium smegmatis, DSM43061; strain DSM 43061; inoculum 2.20E + 04 /ml; 37° C., 2-4 days. As to the method:
(§1) For rapidly growing mycobacteria the MIC determination was carried out following the broth microdilution method described by Swenson [cf. J. M. Swenson, C. Thomberry, U. A. Silcox, Rapidly growing mycobacteria. Testing of susceptibility to 34 antimicrobial agents by broth microdilution. Antimicrobial Agents and Chemotherapy Vol. 22, 186-192 (1982)]. A deviation from this was the brain-heart extract medium treated with 0.1% by volume of Tween 80.
(§2) The mycobacterial strains used were obtained from the DSM (German Collection of Microorganisms, Brunswick). They were incubated at 37° C. in a humid chamber.
(§3) The MIC values were read off after 2-4 days when the preparation-free controls had become turbid due to growth.

The test system of assay [2] is Mycobacterium smegmatis DSM 43078. Described as above. As to conditions: Mycolicibacterium smegmatis, DSM43078; strain DSM 43078; inoculum 4.20E + 04 /ml; 37° C., 2-4 days. As to the method:
as §1, §2, §3

Assay [3] deals with Mycoplasma pneumoniae strain PI 1428. The assay is described as follows: MIC determination with Mycoplasma pneumoniae, serial microdilution. Conditions: PI1428, PPLO medium, anaerobic, 37° C., Alamar Blue. Here is the method: MIC determination with Mycoplasma pneumoniae
Mycoplasma pneumoniae strain PI 1428 was cultured under anaerobic conditions in PPLO medium, to which 1% glucose, 2.5% yeast extract, 20% horse serum (donor horse serum) and 0.002% Phenol Red were added. MIC determinations were carried out following the serial microdilution method in liquid medium described by ter Laak and coworkers (E. A. ter Laak, A. Pijpers, J. H. Noordergraaf, E. Schoevers, J. H. M. Verheijden: Comparison of Methods for in vitro Testing of Susceptibility of Porcine Mycoplasma Species to Antimicrobial Agents; Antimicrobial Agents and Chemotherapy, Vol. 35, 228-233 (1991)). At the time of the start of the colour change of the medium of the preparation-free control from red to yellow, 10% by volume of Alamar Blue was added. The incubation at 37° C. was continued for about 10 hours and the MIC defined as the value at which the medium having the smallest preparation concentration remained unchanged blue.

In assay [4] the test system is Klebs. 57 USA. The assay is described as follows: MIC by serial dilution on Iso-Sensitest Agar. Here is the method:
(§4) The minimum inhibitory concentrations (MIC) were determined by serial dilution methods on Iso-Sensitest Agar (Oxoid). For each test substance, a number of agar plates were prepared which, with an in each case doubled dilution, contained decreasing concentrations of the active compound. The agar plates were inoculated with the multipoint inoculator (Denley). For inoculation, overnight cultures of the caustive organisms were used which had previously been diluted such that each inoculation point contained about 10^4 colony-forming particles. The inoculated agar plates were incubated at 37° C., and the microorganism growth was read off after about 20 hours. The MIC value (μg/ml) indicates the lowest active compound concentration at which no growth could be detected using the naked eye.

In assay [5] the test system is Staph. 133. The assay is described as follows: MIC by serial dilution on Iso-Sensitest Agar. As to conditions: 37° C., about 20 hours. Here is the method: as §4
Assay [6] relates to E. coli Neumann. In words: MIC by serial dilution on Iso-Sensitest Agar. As to conditions: Escherichia coli. As to the method:
as §4

Assay [7] concerns Staph. 9TV. The assay is described as follows: MIC by serial dilution on Iso-Sensitest Agar. Conditions: 37° C., about 20 hours. As to the method: as §4
The subject of assay [8] is Staph. 25701. The assay is described as follows: MIC by serial dilution on Iso-Sensitest Agar. As to conditions: 37° C., about 20 hours. Here is the method:
as §4

Assay [9] has as its system Psdm. Bonn. The assay is described as follows: MIC by serial dilution on Iso-Sensitest Agar. Here is the method:
as §4

Assay [10] has as its system Staph. 48N. The assay is described as follows: MIC by serial dilution on Iso-Sensitest Agar. As to conditions: 37° C., about 20 hours. Here is the method: as §4
[11] abbreviates: Klebs. 57 USA, 37° C., about 20 hours, read-out: MIC.
The mark [12] stands for this setting: E. coli Neumann, 37° C., about 20 hours, read-out: MIC.
Setting [13] is: Psdm. Bonn, 37° C., about 20 hours, read-out: MIC.

≈ marks a conversion by molar mass, not a printed value. Like-named read-outs stand apart in the source and are kept apart here. Bounds are passed on as bounds.

As for `CC(=S)NC[C@H]1CN(c2ccc(-c3ccncc3)s2)C(=O)O1` [Example 13], the MIC is 2 µg/mL in [1]; 1 µg/mL in assay [2]; 2 µg/mL (≈ 6 µM) in assay [3]; greater than 64 µg/mL in assay [4] (setting [11]); 0.25 µg/mL (≈ 0.75 µM) in [5]; greater than 64 µg/mL in assay [6] (setting [12]). In addition, the figures for the MIC in assay [7], in assay [8] and in assay [9] (setting [13]) were no more than 0.125 µg/mL, 0.25 µg/mL (≈ 0.75 µM) and greater than 64 µg/mL, respectively.

As for `CC(=S)NC[C@H]1CN(c2ccc(-c3cccnc3)s2)C(=O)O1` [Example 15], the MIC was 1 µg/mL in assay [1]; 0.5 µg/mL in assay [2]; 0.5 µg/mL (≈ 1.5 µM) in assay [10]; greater than 64 µg/mL in assay [4] (setting [11]); 0.25 µg/mL (≈ 0.75 µM) in assay [5]; greater than 64 µg/mL in [6] (setting [12]). For the same molecule, the MIC in assay [7] was no more than 0.125 µg/mL; in assay [8], 0.25 µg/mL (≈ 0.75 µM); in assay [9] (setting [13]) it was greater than 64 µg/mL.

Turning to `CC(=S)NC[C@H]1CN(c2ccc3c(c2)sc(=O)n3C)C(=O)O1` [Example 42], the MIC in assay [10] was greater than 0.125 µg/mL; in assay [4] (setting [11]), 64 µg/mL (≈ 190 µM); in assay [5], less than 0.125 µg/mL; in assay [6] (setting [12]), 64 µg/mL (≈ 190 µM); in assay [7] it was no more than 0.125 µg/mL; in assay [8] it was greater than 0.125 µg/mL. Further, the MIC in [9] (setting [13]) is greater than 64 µg/mL.

With `CCC(=S)NC[C@H]1CN(c2ccc3ccsc3c2)C(=O)O1` [Example 11], the MIC in assay [10] is 0.5 µg/mL (≈ 1.56 µM); in assay [4] (20 h) it was greater than 64 µg/mL; in assay [5], 0.5 µg/mL (≈ 1.56 µM); in assay [6] (20 h) it was greater than 64 µg/mL; in assay [7], 0.25 µg/mL (≈ 0.78 µM); in [8], 0.25 µg/mL (≈ 0.78 µM). The MIC in [9] (20 h) was greater than 64 µg/mL.

With `CNC(=S)NC[C@H]1CN(c2ccc3nc(SC)sc3c2)C(=O)O1` [Example 23], the MIC in assay [3] is 4 µg/mL (≈ 10.9 µM); in [10] it was 0.5 µg/mL (≈ 1.36 µM); in assay [4] (setting [11]) it was greater than 64 µg/mL; in assay [5], 0.25 µg/mL (≈ 0.678 µM); in assay [6] (setting [12]), greater than 64 µg/mL; in assay [7], 0.25 µg/mL (≈ 0.678 µM). Further, the MIC is 0.5 µg/mL (≈ 1.36 µM) in assay [8] and greater than 64 µg/mL in assay [9] (setting [13]).

On to `NNC(=O)c1ccncc1` [Isoniazide, reference compound], for which the minimum inhibitory concentration (MIC) was 4 µg/mL in assay [1] and 2 µg/mL in assay [2].

Turning to `CNC(=S)NC[C@H]1CN(c2ccc(-c3ccncc3)s2)C(=O)O1` [Example 12], the MIC in assay [1] was 8 µg/mL; in assay [3], 2 µg/mL (≈ 5.74 µM); in assay [10], 1 µg/mL (≈ 2.87 µM); in assay [4] (setting [11]), greater than 64 µg/mL; in assay [6] (setting [12]) it was greater than 64 µg/mL; in [7] it was 0.5 µg/mL (≈ 1.43 µM). Further, the values for the minimum inhibitory concentration (MIC) in assay [8] and in assay [9] (setting [13]) were 1 µg/mL (≈ 2.87 µM) and greater than 64 µg/mL, respectively.

On to `CNC(=S)NC[C@H]1CN(c2ccc3c(c2)sc(=O)n3C)C(=O)O1` [Example 20], for which the MIC was 0.25 µg/mL in [1]; 0.25 µg/mL in assay [2]; 0.25 µg/mL (≈ 0.709 µM) in [10]; greater than 64 µg/mL in assay [4] (setting [11]); 0.25 µg/mL (≈ 0.709 µM) in assay [5]; 64 µg/mL (≈ 182 µM) in assay [6] (setting [12]). Also, the minimum inhibitory concentration (MIC) in assay [7] is no more than 0.125 µg/mL; in [8], 0.25 µg/mL (≈ 0.709 µM); in assay [9] (setting [13]), greater than 64 µg/mL.

As for `CC(=S)NC[C@H]1CN(c2cc3ccc(Cl)cc3s2)C(=O)O1` [Example 43], the MIC in assay [10] is 0.5 µg/mL (≈ 1.47 µM); in assay [4] (setting [11]), greater than 64 µg/mL; in assay [5], 0.5 µg/mL (≈ 1.47 µM); in assay [6] (setting [12]), greater than 64 µg/mL; in assay [7], 0.5 µg/mL (≈ 1.47 µM); in assay [8] it was 0.5 µg/mL (≈ 1.47 µM). In addition, in assay [9] (setting [13]), the MIC is greater than 64 µg/mL.

Consider `CSc1nc2ccc(N3C[C@H](CNC(C)=S)OC3=O)cc2s1` [Example 26], for which the MIC in [10] is 0.25 µg/mL (≈ 0.707 µM); in assay [4] (setting [11]), greater than 64 µg/mL; in [5] it was less than 0.125 µg/mL; in assay [6] (setting [12]), greater than 64 µg/mL; in [7], no more than 0.125 µg/mL; in [8] it was 0.25 µg/mL (≈ 0.707 µM). Besides, in assay [9] (setting [13]), the MIC was greater than 64 µg/mL.

In the case of `CNC(=S)NC[C@H]1CN(c2ccc(-c3cccnc3)s2)C(=O)O1` [Example 14], the MIC is 8 µg/mL in assay [1]; 4 µg/mL in [2]; 8 µg/mL (≈ 23 µM) in [3]; 1 µg/mL (≈ 2.87 µM) in assay [10]; greater than 64 µg/mL in [4] (setting [11]); 1 µg/mL (≈ 2.87 µM) in assay [5]. Further, the MIC was greater than 64 µg/mL in assay [6] (setting [12]), 0.5 µg/mL (≈ 1.43 µM) in assay [7], 1 µg/mL (≈ 2.87 µM) in assay [8] and greater than 64 µg/mL in assay [9] (setting [13]).
